From patent US10995101B2, “2-oxo-thiazole derivatives as A2A inhibitors and compounds for use in the treatment of cancers” (iTeos Therapeutics SA, priority 2017, dated 2021)

What was measured:
in vitro = conditions: human, Caco-2, pH 7.4
A2A receptor = A2A receptor (Homo sapiens, UniProt P29274); assay: Inhibition of cAMP production in HEK cells; format: cell-based; conditions: HEK-293 cells with A2A receptor
Method: When the A2A receptor is activated, is induces the production of cAMP.
HEK-293 cells with a stable transfection of A2A receptor were bought from PerkinElmer® (# ES-011-C). […] Fresh media without the selection marker was added on the day immediately before the experiment to stop selection pressure.
Stimulation buffer b) mimics the human situation by increasing the amount of albumin present in the assay.
Compounds of the present invention were diluted 100× in either of the buffers depending on the assay performed. […] The total volume of the reaction was 20 μl (10 μl of cells, 5 μl of antagonist and 5 μl of agonist). The reaction was finalized by adding 10 μl of 4× EU-cAMP tracer working solution and 10 μl of 4× ULight-anti-cAMP working solution. The TR-FRET signal was measured after 1 hour using a Spectramax Paradigm (Molecular Devices).

[1] = IC50 (nM) (3 nM NECA as agonist, 0.1% BSA), 3 nM NECA as agonist, 0.1% BSA
[2] = IC50 (nM) (5 nM NECA as agonist, 2% HSA), 5 nM NECA as agonist, 2% HSA
[3] = IC50 (nM) (5 μM Adenosine as agonist, 2.0% HSA), 5 μM Adenosine as agonist, 2.0% HSA

A2A receptor, sequence (P29274 whole entry): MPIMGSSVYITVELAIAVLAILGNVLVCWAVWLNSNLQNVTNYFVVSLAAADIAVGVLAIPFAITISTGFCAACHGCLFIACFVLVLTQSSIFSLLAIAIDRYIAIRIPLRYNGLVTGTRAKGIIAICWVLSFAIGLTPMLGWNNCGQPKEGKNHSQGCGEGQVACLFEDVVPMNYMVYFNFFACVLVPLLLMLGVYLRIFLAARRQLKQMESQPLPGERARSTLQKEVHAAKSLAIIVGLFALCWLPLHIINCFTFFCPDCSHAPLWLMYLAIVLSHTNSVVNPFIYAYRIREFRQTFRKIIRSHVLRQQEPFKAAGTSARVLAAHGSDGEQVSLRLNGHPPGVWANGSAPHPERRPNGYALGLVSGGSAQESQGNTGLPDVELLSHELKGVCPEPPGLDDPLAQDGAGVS

Row | SMILES | efflux ratio at 120 min, 2 μM (in vitro) | IC50 (A2A receptor; [1]) | IC50 (A2A receptor; [2]) | IC50 (A2A receptor; [3])
1 | C[S@+]([O-])CCOc1ccc(N2CCN(CCn3c(=O)sc4c3nc(N)n3nc(-c5ccco5)nc43)CC2)c(F)c1 (single isomer, unassigned) [Compound 5] | 67 | 0.4 nM | 8 nM | 241 nM
2 | C[S@@+]([O-])CCOc1ccc(N2CCN(CCn3c(=O)sc4c3nc(N)n3nc(-c5ccco5)nc43)CC2)c(F)c1 (single isomer, unassigned) [Compound 6] | 59 | 0.5 nM | 8 nM | 179 nM
3 | C[S@@+]([O-])c1ccc(N2CCN(CCn3c(=O)sc4c3nc(N)n3nc(-c5ccco5)nc43)CC2)c(F)c1 (single isomer, unassigned) [Compound 119] | 31 | 0.4 nM |  | 183 nM
4 | C[S@+]([O-])c1ccc(N2CCN(CCn3c(=O)sc4c3nc(N)n3nc(-c5ccco5)nc43)CC2)c(F)c1 (single isomer, unassigned) [Compound 120] | 33 | 0.4 nM |  | 123 nM
5 | Nc1nc2c(sc(=O)n2CCN2CCN(c3ccc(O[C@H]4CC[S@@+]([O-])CC4)cc3F)CC2)c2nc(-c3ccco3)nn12 (single isomer, unassigned) [Compound 121, 5-amino-3-(2-(4-(2-fluoro-4-(((1s,4s)-1-oxidotetrahydro-2H-thiopyran-4-yl)oxy)phenyl)piperazin-1-yl)ethyl)-8-(furan-2-yl)thiazolo[5,4-e][1,2,4]triazolo[1,5-c]pyrimidin-2(3H)-one] | 90 | 0.8 nM |  | 232 nM
6 | Nc1nc2c(sc(=O)n2CCN2CCN(c3ccc(O[C@H]4CC[S@+]([O-])CC4)cc3F)CC2)c2nc(-c3ccco3)nn12 (single isomer, unassigned) [Compound 122, 5-amino-3-(2-(4-(2-fluoro-4-(((1r,4r)-1-oxidotetrahydro-2H-thiopyran-4-yl)oxy)phenyl)piperazin-1-yl)ethyl)-8-(furan-2-yl)thiazolo[5,4-e][1,2,4]triazolo[1,5-c]pyrimidin-2(3H)-one] | 349 | 0.8 nM |  | 187 nM
7 | Nc1nc2c(sc(=O)n2CCN2CCN(c3cc(O[C@@H]4CNC[C@H]4F)c(F)cc3F)CC2)c2nc(-c3ccco3)nn12 (stereo in doubt) [Compound 91, 5-amino-3-(2-(4-(2,4-difluoro-5-(((3R,4R)-4-fluoropyrrolidin-3-yl)oxy)phenyl)piperazin-1-yl)ethyl)-8-(furan-2-yl)thiazolo[5,4-e][1,2,4]triazolo[1,5-c]pyrimidin-2(3H)-one] | 195 | 0.8 nM |  | 168 nM
8 | Nc1nc2c(sc(=O)n2CCN2CCN(c3ccncc3F)CC2)c2nc(-c3ccco3)nn12 [Compound 3, 5-amino-3-(2-(4-(3-fluoropyridin-4-yl)piperazin-1-yl)ethyl)-8-(furan-2-yl)thiazolo[5,4-e][1,2,4]triazolo[1,5-c]pyrimidin-2(3H)-one] | 4 |  |  | 
9 | Nc1nc2c(sc(=O)n2CCN2CCN(c3ccc(OCCO)cc3)CC2)c2nc(-c3ccco3)nn12 [Compound 9, 5-amino-8-(furan-2-yl)-3-(2-(4-(4-(2-hydroxyethoxy)phenyl)piperazin-1-yl)ethyl)thiazolo[5,4-e][1,2,4]triazolo[1,5-c]pyrimidin-2(3H)-one] | 8 | 3.4 nM |  | 
10 | Nc1nc2c(sc(=O)n2CCN2CCN(c3ccc(OCC(=O)O)cc3)CC2)c2nc(-c3ccco3)nn12 [Compound 10, 2-(4-(4-(2-(5-amino-8-(furan-2-yl)-2-oxothiazolo[5,4-e][1,2,4]triazolo[1,5-c]pyrimidin-3(2H)-yl)ethyl)piperazin-1-yl)phenoxy)acetic acid] | 24 | 2.3 nM | 14 nM | 607 nM
11 | Nc1nc2c(sc(=O)n2CCN2CCN(c3ccc(OCC(=O)N4CCNCC4)cc3F)CC2)c2nc(-c3ccco3)nn12 [Compound 24, 5-amino-3-(2-(4-(2-fluoro-4-(2-oxo-2-(piperazin-1-yl)ethoxy)phenyl)piperazin-1-yl)ethyl)-8-(furan-2-yl)thiazolo[5,4-e][1,2,4]triazolo[1,5-c]pyrimidin-2(3H)-one] | 117 | 0.8 nM | 2 nM | 137 nM
12 | CN(CCOc1ccc(N2CCN(CCn3c(=O)sc4c3nc(N)n3nc(-c5ccco5)nc43)CC2)c(F)c1)CC(N)=O [Compound 46, 2-((2-(4-(4-(2-(5-amino-8-(furan-2-yl)-2-oxothiazolo[5,4-e][1,2,4]triazolo[1,5-c]pyrimidin-3(2H)-yl)ethyl)piperazin-1-yl)-3-fluorophenoxy)ethyl)(methyl)amino)acetamide] | 30 |  |  | 
13 | Nc1nc2c(sc(=O)n2CCN2CCN(c3cc(OCCCC(=O)O)c(F)cc3F)CC2)c2nc(-c3ccco3)nn12 [Compound 65, 4-(5-(4-(2-(5-amino-8-(furan-2-yl)-2-oxothiazolo[5,4-e][1,2,4]triazolo[1,5-c]pyrimidin-3(2H)-yl)ethyl)piperazin-1-yl)-2,4-difluorophenoxy)butanoic acid] |  | 0.6 nM | 27 nM | 494 nM
14 | CCOC(=O)COc1cc(N2CCN(CCn3c(=O)sc4c3nc(N)n3nc(-c5ccco5)nc43)CC2)c(F)cc1F [Compound 73, ethyl 2-(5-(4-(2-(5-amino-8-(furan-2-yl)-2-oxothiazolo[5,4-e][1,2,4]triazolo[1,5-c]pyrimidin-3(2H)-yl)ethyl)piperazin-1-yl)-2,4-difluorophenoxy)acetate] |  | 3.4 nM | 8 nM | 304 nM
15 | Nc1nc2c(sc(=O)n2CCN2CCN(c3ccncc3)CC2)c2nc(-c3ccco3)nn12 [Compound 75, 5-amino-8-(furan-2-yl)-3-(2-(4-(pyridin-4-yl)piperazin-1-yl)ethyl)thiazolo[5,4-e][1,2,4]triazolo[1,5-c]pyrimidin-2(3H)-one] |  | 24 nM | 100 nM | 
16 | Nc1nc2c(sc(=O)n2CCN2CCN(c3ccncn3)CC2)c2nc(-c3ccco3)nn12 [Compound 76, 5-amino-8-(furan-2-yl)-3-(2-(4-(pyrimidin-4-yl)piperazin-1-yl)ethyl)thiazolo[5,4-e][1,2,4]triazolo[1,5-c]pyrimidin-2(3H)-one] |  | 5 nM | 151 nM | 
17 | CN(C)CCNC(=O)c1cc(N2CCN(CCn3c(=O)sc4c3nc(N)n3nc(-c5ccco5)nc43)CC2)c(F)cc1F [Compound 81, 5-(4-(2-(5-amino-8-(furan-2-yl)-2-oxothiazolo[5,4-e][1,2,4]triazolo[1,5-c]pyrimidin-3(2H)-yl)ethyl)piperazin-1-yl)-N-(2-(dimethylamino)ethyl)-2,4-difluorobenzamide] |  | 117 nM |  | 
18 | Nc1nc2c(sc(=O)n2CCN2CCN(c3cc(O[C@@H]4CNC[C@@H]4F)c(F)cc3F)CC2)c2nc(-c3ccco3)nn12 [Compound 93, 5-amino-3-(2-(4-(2,4-difluoro-5-(((3R,4S)-4-fluoropyrrolidin-3-yl)oxy)phenyl)piperazin-1-yl)ethyl)-8-(furan-2-yl)thiazolo[5,4-e][1,2,4]triazolo[1,5-c]pyrimidin-2(3H)-one] |  | 0.4 nM |  | 33 nM
19 | Nc1nc2c(sc(=O)n2CCN2CCN(c3cc(O[C@H]4CNC[C@H]4F)c(F)cc3F)CC2)c2nc(-c3ccco3)nn12 [Compound 94, 5-amino-3-(2-(4-(2,4-difluoro-5-(((3S,4R)-4-fluoropyrrolidin-3-yl)oxy)phenyl)piperazin-1-yl)ethyl)-8-(furan-2-yl)thiazolo[5,4-e][1,2,4]triazolo[1,5-c]pyrimidin-2(3H)-one] | 173 |  |  | 
20 | Nc1nc2c(sc(=O)n2CCN2CCN(c3cc(OCC(=O)NCCN4CCOCC4)c(F)cc3F)CC2)c2nc(-c3ccco3)nn12 [Compound 97, 2-(5-(4-(2-(5-amino-8-(furan-2-yl)-2-oxothiazolo[5,4-e][1,2,4]triazolo[1,5-c]pyrimidin-3(2H)-yl)ethyl)piperazin-1-yl)-2,4-difluorophenoxy)-N-(2-morpholinoethyl)acetamide] |  | 1.1 nM |  | 30 nM
21 | Nc1nc2c(sc(=O)n2CCN2CCN(c3ccc(OCC(=O)NCCN4CCOCC4)cc3F)CC2)c2nc(-c3ccco3)nn12 [Compound 105, 2-(4-(4-(2-(5-amino-8-(furan-2-yl)-2-oxothiazolo[5,4-e][1,2,4]triazolo[1,5-c]pyrimidin-3(2H)-yl)ethyl)piperazin-1-yl)-3-fluorophenoxy)-N-(2-morpholinoethyl)acetamide] |  | 0.7 nM |  | 95 nM
22 | Nc1nc2c(sc(=O)n2CCN2CCN(c3ccc(C(=O)NCCN4CCOCC4)cc3F)CC2)c2nc(-c3ccco3)nn12 [Compound 106, 4-(4-(2-(5-amino-8-(furan-2-yl)-2-oxothiazolo[5,4-e][1,2,4]triazolo[1,5-c]pyrimidin-3(2H)-yl)ethyl)piperazin-1-yl)-3-fluoro-N-(2-morpholinoethyl)benzamide] |  | 0.3 nM |  | 205 nM
23 | Nc1nc2c(sc(=O)n2CCN2CCN(c3cc(OC[C@@H](O)CO)c(F)cc3F)CC2)c2nc(-c3ccco3)nn12 [Compound 127, (S)-5-amino-3-(2-(4-(5-(2,3-dihydroxypropoxy)-2,4-difluorophenyl)piperazin-1-yl)ethyl)-8-(furan-2-yl)thiazolo[5,4-e][1,2,4]triazolo[1,5-c]pyrimidin-2(3H)-one] |  | 0.5 nM |  | 35 nM
